Measured values reported in the NIST ThermoML archive (doi:10.1016/j.jct.2010.12.012).
Values joined by “and” are separate entries in the source; they are usually repeats but may differ in a detail not shown here. Equal values may be shown once. Numbers after ± are expanded uncertainties.

Assays:
[1] = 298.15 K; 101.33 kPa; Liquid; Vibrating tube method
[2] = refractive index (Na D-line) (dimensionless); conditions: 298.15 K; 101.33 kPa; Liquid; Standard Abbe refractometry
[3] = xn = mol fraction of the nth substance listed; conditions: 298.15 K, 101 kPa, Liquid, Vibrating tube method

Row | SMILES | mass density [1] [kg/m3] | refractive index [2] | other results
1 | C1=CCCCC1 [cyclohexene] | 805.69 ± 0.24 | 1.44378 ± 0.00037 | 
2 | C1CCCCC1 [cyclohexane] | 773.8 ± 0.24 | 1.4236 ± 0.00037 | 
3 | Cc1ccccc1 [toluene] | 862.17 ± 0.1 | 1.49399 ± 0.00031 | 
4 | CCCCn1cc[n+](C)c1.COS(=O)(=O)[O-] [1-butyl-3-methylimidazolium methyl sulfate] + CC1CCCCC1 |  |  | mass density ([3]; x2 = 0.028): 1207.3 ± 1.3 kg/m3
5 | CCCCn1cc[n+](C)c1.COS(=O)(=O)[O-] [1-butyl-3-methylimidazolium methyl sulfate] + C1CCCCC1 |  |  | mass density ([3]; x2 = 0.039): 1204.53 ± 1.3 kg/m3
6 | C1=CCCCC1 [cyclohexene] + CCCCn1cc[n+](C)c1.COS(=O)(=O)[O-] |  |  | mass density ([3]; x1 = 0.071): 1201.85 ± 1.9 kg/m3
7 | C1CCCCCCC1 [cyclooctane] + CCCCn1cc[n+](C)c1.COS(=O)(=O)[O-] |  |  | mass density ([3]; x1 = 0.02): 1207.63 ± 1.3 kg/m3
8 | CCCCn1cc[n+](C)c1.COS(=O)(=O)[O-] [1-butyl-3-methylimidazolium methyl sulfate] + Cc1ccccc1 |  |  | mass density ([3]; x2 = 0.328): 1151 ± 1.2 kg/m3 and 1153.43 ± 1.2 kg/m3
9 | CCCCn1cc[n+](C)c1.COS(=O)(=O)[O-] [1-butyl-3-methylimidazolium methyl sulfate] | 1212.59 ± 0.41 | 1.47792 ± 0.00037 | 
10 | C1CCCCCCC1 [cyclooctane] | 831.47 ± 0.24 | 1.45598 ± 0.00037 | 
11 | CC1CCCCC1 [methylcyclohexane] | 765.02 ± 0.24 | 1.42062 ± 0.00037 | 
